How the values were obtained:
[1] = test system: HEK-293 (human embryonic kidney) cells; assay: Cell viability, healthy HEK-293 cells; type: cell-based; conditions: 3 h
[2] = test system: lung inflammatory cells, C57BL/6 mice; assay: Lung histology (HE), inflammatory foci; type: in vivo, mouse
Description: Figure 7 Psd1 inhibited the appearance of inflammatory cells in lung tissues. Two animals from each group of the in vivo experiment were anaesthetized and submitted to transcardial perfusion for further histological procedures. The lungs were removed and prepared for hematoxylin and eosin (HE) staining as described in the Materials and Methods. (A) Representative images from the lungs of one animal from each experimental group. […] The left and right panels indicate 10× and 20× magnifications, and the bars represent 200 and […], respectively. (B) Quantification of inflammatory infiltration (± SEM) was obtained in six fields, corresponding to 90% of the tissue. […] Values represent the mean ± SD of two independent experiments analyzed by one-way ANOVA and Bonferroni’s multiple comparison test.
After the above procedure, two animals from each group were anaesthetized and submitted to treatment with 4% paraformaldehyde in 0.1 M phosphate buffer (pH 7.4) by transcardial perfusion. The lung was removed and immersed in the same fixative solution. The lung specimens were sliced into 5 mm pieces, dehydrated through an ascending ethanol series (70, 95, and 100% ethanol for 30 min each) and then embedded in paraffin using standard procedures. Serial 5 µm-thick sections were prepared using a sliding microtome (Leica Microsystems, Wetzlar, Germany). Hematoxylin and eosin (HE) staining wereperformed to quantify possible foci of inflammatory infiltrates and fibrosis in experimental and control animals. The stained sections were observed, and digital images were taken with a Zeiss AxioPhot fluorescence microscope (Carl-Zeiss, Oberkochen, Germany). Specifically, two slices of each sample (six fields of each slice corresponding to approximately 90% of the slice) were used for quantitative analysis to obtain the mean value.

[3] = test system: B16F10 (murine skin melanoma) cells; assay: MTT cell viability, B16F10 tumor cells; type: cell-based; conditions: 24 h, two independent experiments in triplicate, p < 0.001 vs untreated
[4] = test system: B16F10 melanoma cells in C57BL/6 mice; assay: Experimental B16F10 melanoma lung metastasis, nodule count; type: in vivo; conditions: for Lung nodules: day 21, mean ± SEM
Description: Figure 6 Protective effects of Psd1 on a model of experimental lung metastasis in vivo. B16F10 mouse melanoma tumors were established by intravenous injection of 2.5 × 10^5 B16F10 cells into C57BL/6 mice. (A) After 21 days, mice from each experimental group were sacrificed, and the number of visible lung metastatic nodules was quantified. Treatment of the animals inoculated with melanoma cells plus Psd1 caused a dose-dependent reduction in the number of lung metastases. Black lines represent the mean ± SEM of two independent experiments analyzed by one-way ANOVA and Bonferroni’s multiple comparison test. **** p < 0.0001 B16F10 vs. phosphate buffer solution (PBS); **** p < 0.0001 B16F10 vs. Psd1 1 mg/kg; **** p < 0.0001 B16F10 vs. just Psd1 1 mg/kg (without B16F10 cells); *** p < 0.001 B16F10 vs. Psd1 3 mg/kg; * p < 0.05 B16F10 vs. Psd1 0.5 mg/kg. (B) Representative images of lung metastatic nodules from animals that received just PBS or B16F10 cells alone or together with 0.1 mg/kg or 1 mg/kg Psd1. Bar = 2 mm. (C) Animal weights were acquired every two days. Weight variation was calculated as (weight on that day (weight of the first day × 100 − 100)). Only the days with higher weight differences between animals injected with only B16F10 cells and those that received cells plus Psd1 or PBS alone are represented. All of the values represent the mean ± SEM of two independent experiments analyzed by two-way ANOVA. *** p < 0.001 B16F10 vs. PBS at […]; *** p < 0.001 B16F10 vs. Psd1 0.1 mg/kg at 9 weeks; ** p < 0.01 B16F10 vs. Psd1 0.1 mg/kg at 13 weeks; *** p < 0.001 B16F10 vs. Psd1 1 mg/kg at 9 and 13 weeks; ** p < 0.01 B16F10 vs. Psd1 1 mg/kg at 17 weeks; * p < 0.05 B16F10 vs. Psd1 1 mg/kg at 7 weeks; *** p < 0.001 B16F10 vs. Psd1 3 mg/kg at 7 and 9 weeks.
Eight-week-old C57BL/6 female mice (CEMIB, Campinas–Brasil) weighing approximately 20 g were individually marked and separated according to their experimental groups. These animals were kept in cages 20 cm × 35 cm × 15 cm (width × length × height) with free access to water and food under day and night cycles that lasted twelve hours with a controlled temperature (20–25 °C) in our own facilities. This study was approved by the Ethics Committee on the Use of Animals of Health Science Centre of the Federal University of Rio de Janeiro, Brazil (CEUA/CCS/UFRJ, CONCEA registered number 01200.001568/2013.87, approved protocol IBCCF 163 at 28 August 2012). All animals received humane care in compliance with the “Principles of Laboratory Animal Care” formulated by the National Society for Medical Research and the “Guide for the Care and Use of Laboratory Animals” prepared by the National Academy of Sciences, USA, and the National Council for Controlling Animal Experimentation, Ministry of Science, Technology and Innovation (CONCEA/MCTI), Brazil.
Mice were injected via the lateral tail vein with 100 µL of PBS only (137 mM NaCl, 2.7 mM KCl, 10 mM Na2HPO4, 2 mM KH2PO4, pH 7.4) (n = 17) or 100 µL of B16F10 cells (2.5 × 10^5 cells/animal suspended in DMEM) (n = 15). Other groups of animals were intravenously co-injected with a freshly prepared, in order to avoid B16F10 cells death, mix of B16F10 cells plus 0.1 mg/kg (n = 8), 0.5 mg/kg (n = 8), 1 mg/kg (n = 17), or 3 mg/kg Psd1 (n = 7).
Another group of animals received 1 mg/kg of Psd1 only (n = 9) to evaluate Psd1 toxicity. Twenty-one days later, the animals were anaesthetized and sacrificed, and the black lung melanoma nodules were counted and measured under a dissecting microscope (Zeiss AxioPhot fluorescence microscope (Carl-Zeiss, Oberkochen, Germany)).

Psd1: 46-amino acid residue plant defensin isolated from pea seeds, expressed in Pichia pastoris (PDB 1JKZ) (KTCEHLADTYRGVCFTNASCDDHCKNKAHLISGTCHNWKCFCTQNC)
HEK-293 cell viability [1]: no alteration in cell viability
Inflammatory foci, Psd1 alone ([2]; 1 mg/kg Psd1 alone, i.v., day 21, p < 0.001 vs B16F10): very low inflammatory foci
Number of lung inflammatory cells ([2]; 1 mg/kg Psd1 i.v. with B16F10 cells): near zero
Accumulation of lung inflammatory cells ([2]; 1 and 3 mg/kg Psd1 i.v. with B16F10 cells, day 21, p < 0.001 vs B16F10): significant reduction in the accumulation of inflammatory cells
Reduction of B16F10 cell viability (MTT) ([3]; 25 µM): approximately 50%
Reduction of B16F10 cell viability (MTT) ([3]; 50 µM): ~60%
Number of lung nodules, result in words ([4]; 0.1 mg/kg i.v., day 21): not effective in reducing the number of nodules
Size of lung nodules, result in words ([4]; 0.1 mg/kg i.v., day 21, data not shown): effective in reducing their size
Lung nodules ([4]; 0.5 mg/kg i.v. co-injected with B16F10 cells, B16F10 only average 43 nodules, p < 0.05): 10.2 ± 2.6 nodules
Decrease of number of pulmonary nodules ([4]; 0.5 mg/kg i.v., day 21): 75%
Lung nodules in animals without B16F10 cells ([4]; 1.0 mg/kg Psd1 alone, i.v., day 21): did not present lung nodules
Lung nodules ([4]; 1.0 mg/kg i.v. co-injected with B16F10 cells, p < 0.0001): 4.82 ± 1.88 nodules
Decrease of number of pulmonary nodules ([4]; 1.0 mg/kg i.v., day 21): 88%
Lung nodules ([4]; 3.0 mg/kg i.v. co-injected with B16F10 cells, p < 0.001): 0.14 ± 0.14 nodules
Tumor development, result in words ([4]; 3.0 mg/kg i.v., day 21): completely abolished tumor development
Lung metastasis nodules, result in words ([4]; i.v., above 0.5 mg/kg): completely inhibited the formation of B16F10 lung metastasis nodules
Lowest dose with significant reduction of lung metastasis colonization ([4]; i.v., day 21, dose-dependent): 0.5 mg/kg

— PMC7219108, “Pisum sativum Defensin 1 Eradicates Mouse Metastatic Lung Nodules from B16F10 Melanoma Cells” (International Journal of Molecular Sciences, 2020)
